Data on 6 molecules can be found in BindingDB's records for doi:10.7270/Q2G73C2Z (University of Pittsburgh, 2007).

As a reminder, the IC50 is the concentration at which inhibition is half-maximal. Low readings indicate greater potency, high ones weaker potency.

This assay has as its target T1, Dual specificity protein phosphatase 6 (Rattus norvegicus, UniProt Q64346).
T1 sequence (Q64346 whole entry): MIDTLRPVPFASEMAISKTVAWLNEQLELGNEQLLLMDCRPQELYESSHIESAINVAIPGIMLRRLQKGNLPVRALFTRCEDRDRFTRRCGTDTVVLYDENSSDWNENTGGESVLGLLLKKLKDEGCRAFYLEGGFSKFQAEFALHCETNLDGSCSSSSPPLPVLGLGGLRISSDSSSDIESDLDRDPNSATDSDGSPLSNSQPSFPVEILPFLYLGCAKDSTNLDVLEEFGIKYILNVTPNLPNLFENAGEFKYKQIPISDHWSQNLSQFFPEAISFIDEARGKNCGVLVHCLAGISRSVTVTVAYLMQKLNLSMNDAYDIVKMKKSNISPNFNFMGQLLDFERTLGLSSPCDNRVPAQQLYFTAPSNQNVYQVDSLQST
The assay is described as follows: MKP-3 phosphatase inhibitors, repeat potency, dose response, biochemical, rat DUSP6, reproducibility testing, probe assessment (AID 566).
With `CCOC(=O)c1ccc2c(c1)C1C=CCC1C(C(=O)O)N2` (stereo unspecified) [MLS-0025126.0001], the half-inhibitory concentration (IC50) is > 50 µM.

In the case of `O=C(NC1(O)C(=O)c2ccccc2C1=O)c1ccccc1` [N-(2-hydroxy-1,3-dioxo-2-indenyl)benzamide], the midpoint of inhibition, the IC50, lay at 19.9 µM.

Consider `O=C(OC1CCCCC1)c1ccc2c(c1)C1C=CCC1C(C(=O)O)N2` (stereo unspecified) [SMR000019385], for which the IC50 was > 50 µM.

In the case of `O=C1c2ccccc2-c2onc3ccc(NCCCn4ccnc4)c1c23` [SMR000044769], the IC50 is > 50 µM.

Consider `CCCCn1c(NC(=O)c2ccccc2)c(C#N)c2nc3ccccc3nc21` [SMR000060333], for which the midpoint of inhibition, the IC50, lay at 18.4 µM.

Regarding `N#Cc1c(N2CCCC2)nc(N)c2c(N)nc(N3CCCC3)cc12` [SMR000061605], half-maximal inhibition (IC50) was put at 3.43 µM.
